Values of other authors in patent publication US11925768B2, “Method for decolonizing mammalian skin” (AVADIM HEALTH IP, INC., priority 2014, dated 2024).

Conditions: concentrations as low as

In the case of `O=S1(=O)CCN(CN2CCS(=O)(=O)NC2)CN1` [Taurolidine, taurolidine], the “concentration producing intense pain in most tissues” value is given as “about 10 mg/ml”.
